Results: patent US4268664A, “Process for the preparation of 1-N-isoseryl- or 1-N-(L-4-amino-2-hydroxybutyryl)-3',4'-dideoxykanamycin B and intermediates thereof” (Zaidan Hojin Biseibutsu Kagaku Kenkyu Kai, priority 1978, dated 1981)
Read-outs that look alike come from different tables or passages of the source.

What was measured:
[1] = test system: drug-resistant microbial strains including Pseudomonas aeruginosa; settings: cited from earlier work
[2] = test system: Kleb. pneumoniae 22# 3038 (A-20680); assay: Antibacterial activity (MIC), serial dilution method; assay type: cell-based; settings: Klebsiella pneumoniae
Sal. typhimurium LT-2 = assay: as above; assay type: cell-based; settings: Salmonella enterica
Sta. epidermidis 109 = assay: as above; assay type: cell-based; settings: Staphylococcus epidermidis, nutrient agar, 37° C., 20 hours
Sta. aureus No. 26 = assay: as above; assay type: cell-based; settings: Staphylococcus aureus, nutrient agar, 37° C., 20 hours
Pro. mirabilis J-0010 = assay: as above; assay type: cell-based; settings: Proteus mirabilis
Serra. marcescens No. 2 = assay: as above; assay type: cell-based; settings: Serratia marcescens, nutrient agar, 37° C., 20 hours
Ps. aeruginosa NC-5 = assay: as above; assay type: cell-based; settings: Pseudomonas aeruginosa
[3] = test system: Sal. enteritidis No. 11(T-okai); assay: as above; assay type: cell-based; settings: Salmonella enterica
Pro. vulgaris OX19 = assay: as above; assay type: cell-based; settings: Proteus vulgaris, nutrient agar, 37° C., 20 hours
Ps. aeruginosa M-0148 = assay: as above; assay type: cell-based; settings: Pseudomonas aeruginosa
[4] = test system: Shigella dysenteriae Shigae; assay: microbe, parasite or virus in culture; assay type: cell-based; settings: 20 h
Pro. vulgaris J-0001 = assay: Antibacterial activity (MIC), serial dilution method; assay type: cell-based; settings: Proteus vulgaris
[5] = test system: Sta. aureus Rosenbach FDA 209-P JC-1; assay: as above; assay type: cell-based; settings: Staphylococcus aureus, FDA209; nutrient agar, 37° C., 20 hours
various microorganisms = assay: antimicrobial activity (in words); assay type: cell-based
Protocol: (§1) The minimum inhibitory concentrations (mcg/ml) of the compounds tested against various microorganisms were determined according to a serial dilution method using nutrient agar medium at 37° C., the estimation being effected after 20 hours-incubation.

B. anthracis No. 119 = assay: microbe, parasite or virus in culture; assay type: cell-based; settings: Bacillus anthracis, NO.119, 20 h
Sal. typhi 0-901-W = assay: Antibacterial activity (MIC), serial dilution method; assay type: cell-based; settings: Salmonella enterica, 20 h
E. coli No. 29 = assay: as above; assay type: cell-based; settings: Escherichia coli, nutrient agar, 37° C., 20 hours
B. subtilis ATCC 6633 = assay: as above; assay type: cell-based; settings: Bacillus subtilis, ATCC6633; nutrient agar, 37° C., 20 hours
E. coli A-0003 = assay: as above; assay type: cell-based; settings: Escherichia coli, A0003; nutrient agar, 37° C., 20 hours
[6] = test system: E. coli (M) Cast. & Chalm.NIHJ JC-2; assay: as above; assay type: cell-based; settings: Escherichia coli
Ps. aeruginosa IAM-1007 = assay: as above; assay type: cell-based; settings: Pseudomonas aeruginosa
Ps. aeruginosa M-0032 = assay: as above; assay type: cell-based; settings: Pseudomonas aeruginosa
[7] = test system: Ps. aeruginosa IID 1210 (IFO 3455); assay: as above; assay type: cell-based; settings: Pseudomonas aeruginosa
Pro. morganii K-ono = assay: as above; assay type: cell-based; settings: Morganella morganii; nutrient agar, 37° C., 20 hours
Sal. species D-0001 = assay: as above; assay type: cell-based; settings: nutrient agar, 37° C., 20 hours
Protocol: (§2) Antimicrobial spectra of 1-N-(L-isoseryl)- and 1-N-(L-4-amino-2-hydroxybutyryl)-3',4'-dideoxy-3',4'-didehydrokanamycin B (1-AHP-eno-DKB and 1-AHB-eno-DKB) are shown in the following table together with that of 1-N-(L-4-amino-2-hydroxybutyryl)-3',4'-dideoxykanamycin B (1-AHB-DKB).
as §1

Sal. species D-0006 = assay: as above; assay type: cell-based; settings: nutrient agar, 37° C., 20 hours
Protocol: as §2, §1

E. coli W 677(A-20684) = assay: as above; assay type: cell-based; settings: Escherichia coli; nutrient agar, 37° C., 20 hours
Protocol: as §2, §1

Sta. aureus Smith S-424 = assay: as above; assay type: cell-based; settings: Staphylococcus aureus, SMITHS424; nutrient agar, 37° C., 20 hours
Sta. aureus N-0089 = assay: as above; assay type: cell-based; settings: Staphylococcus aureus, N0089; nutrient agar, 37° C., 20 hours
Str. faecalis ATCC 8043 = assay: as above; assay type: cell-based; settings: Enterococcus faecalis, ATCC8043; nutrient agar, 37° C., 20 hours
[8] = test system: Sta. epidermidis ATCC 14990; assay: as above; assay type: cell-based; settings: Staphylococcus epidermidis, ATCC14990; nutrient agar, 37° C., 20 hours
E. coli A-0001 = assay: as above; assay type: cell-based; settings: Escherichia coli, A0001; nutrient agar, 37° C., 20 hours
Pro. rettgelli J-0026 = assay: as above; assay type: cell-based
[9] = test system: E. coli JR 66/W 677(A-20683); assay: as above; assay type: cell-based; settings: Escherichia coli
Sta. aureus ApO-1 = assay: as above; assay type: cell-based; settings: Staphylococcus aureus, APO1; nutrient agar, 37° C., 20 hours
Ps. aeruginosa M-0002 = assay: as above; assay type: cell-based; settings: Pseudomonas aeruginosa
Ps. aeruginosa E-2 = assay: as above; assay type: cell-based; settings: Pseudomonas aeruginosa
Kleb. pneumoniae = assay: as above; assay type: cell-based; settings: Klebsiella pneumoniae
Serra. marcescens I-0043 = assay: as above; assay type: cell-based; settings: Serratia marcescens
Serra. marcescens No. 1 = assay: as above; assay type: cell-based; settings: Serratia marcescens, nutrient agar, 37° C., 20 hours
[10] = test system: kanamycin-resistant microbial strains including Pseudomonas aeruginosa; settings: cited from earlier work
Sal. species D-0029 = assay: Antibacterial activity (MIC), serial dilution method; assay type: cell-based; settings: nutrient agar, 37° C., 20 hours
Protocol: as §2, §1

[11] = nutrient agar, 37° C., 20 hours, read-out: MIC
[12] = J0010, nutrient agar, 37° C., 20 hours, read-out: MIC
[13] = NC5, nutrient agar, 37° C., 20 hours, read-out: MIC
[14] = J0001, nutrient agar, 37° C., 20 hours, read-out: MIC
[15] = NIHJJC2, nutrient agar, 37° C., 20 hours, read-out: MIC
[16] = IAM1007, nutrient agar, 37° C., 20 hours, read-out: MIC
[17] = M0032, nutrient agar, 37° C., 20 hours, read-out: MIC
[18] = M0002, nutrient agar, 37° C., 20 hours, read-out: MIC
[19] = E2, nutrient agar, 37° C., 20 hours, read-out: MIC

NCC1CCC(N)C(OC2C(N)CC(NC(=O)C(O)CN)C(OC3OC(CO)C(O)C(N)C3O)C2O)O1 (stereo not shown) [1-N-isoseryl-3',4'-dideoxykanamycin B]
high activity: activity against a wide variety of drug-resistant microbial strains [1]

NCCC(O)C(=O)NC1CC(N)C(OC2OC(CN)C=CC2N)C(O)C1OC1OC(CO)C(O)C(N)C1O [1-AHB-eno-DKB, 1-N-(L-4-amino-2-hydroxybutyryl)-3',4'-dideoxy-3',4'-didehydrokanamycin B]
6.25 µg/mL: MIC (Serra. marcescens No. 2) | MIC (Ps. aeruginosa NC-5; [13]) | MIC [7, 11] | MIC (Pro. rettgelli J-0026; [11]) | MIC (Serra. marcescens No. 1)
0.39 µg/mL: MIC (Sta. aureus ApO-1)
12.5 µg/mL: MIC (Ps. aeruginosa M-0032; [17])
50 µg/mL: MIC (Str. faecalis ATCC 8043)
3.13 µg/mL: MIC (Pro. vulgaris OX19) | MIC (Ps. aeruginosa M-0148; M0148, nutrient agar, 37° C., 20 hours, read-out: MIC) | MIC (E. coli No. 29) | MIC (E. coli A-0003) | MIC [6, 15] | MIC (Sal. species D-0001) | MIC (E. coli A-0001) | MIC [9, 11] | MIC (Ps. aeruginosa M-0002; [18]) | MIC (Ps. aeruginosa E-2; [19])
0.78 µg/mL: MIC (Sta. aureus No. 26) | MIC [4] | MIC (Sal. typhi 0-901-W) | MIC (E. coli W 677(A-20684))
1.56 µg/mL: MIC [2, 11] | MIC (Sal. typhimurium LT-2; [11]) | MIC (Pro. mirabilis J-0010; [12]) | MIC [3, 11] | MIC (Pro. vulgaris J-0001; [14]) | MIC (Ps. aeruginosa IAM-1007; [16]) | MIC (Pro. morganii K-ono) | MIC (Sal. species D-0006) | MIC (Kleb. pneumoniae; [11]) | MIC (Serra. marcescens I-0043; I0043, nutrient agar, 37° C., 20 hours, read-out: MIC)
0.2 µg/mL: MIC (Sta. epidermidis 109) | MIC (B. subtilis ATCC 6633) | MIC (Sta. aureus Smith S-424) | MIC (Sta. aureus N-0089)
0.1 µg/mL: MIC [5] | MIC (B. anthracis No. 119) | MIC [8]
high antimicrobial activity: antimicrobial activity (various microorganisms)

NCC1C=CC(N)C(OC2C(N)CC(NC(=O)C(O)CN)C(OC3OC(CO)C(O)C(N)C3O)C2O)O1 (stereo not shown) [1-N-isoseryl-3',4'-dideoxy-3',4'-didehydrokanamycin B]
high antimicrobial activity: antimicrobial activity (various microorganisms)

NCC1CCC(N)C(OC2C(N)CC(N)C(OC3OC(CO)C(O)C(N)C3O)C2O)O1 (stereo not shown) [3',4'-Dideoxykanamycin B]
high activity: activity against kanamycin-resistant microbial strains [10]

NCCC(O)C(=O)NC1CC(N)C(OC2OC(CN)CCC2N)C(O)C1OC1OC(CO)C(O)C(N)C1O [1-AHB-DKB, 1-N-(L-4-amino-2-hydroxybutyryl)-3',4'-dideoxykanamycin B]
12.5 µg/mL: MIC (Ps. aeruginosa M-0032; M0032, 20 h) | MIC ([7]; 20 h)
1.56 µg/mL: MIC (Sal. typhimurium LT-2; 20 h) | MIC (Pro. mirabilis J-0010; J0010, 20 h) | MIC ([3]; 20 h) | MIC (Pro. vulgaris J-0001; J0001, 20 h) | MIC ([6]; NIHJJC2, 20 h) | MIC (Ps. aeruginosa IAM-1007; IAM1007, 20 h) | MIC (Sal. species D-0001) | MIC (Sal. species D-0006) | MIC ([9]; 20 h) | MIC (Serra. marcescens I-0043; I0043, 20 h)
50 µg/mL: MIC (Str. faecalis ATCC 8043)
0.2 µg/mL: MIC (Sta. epidermidis 109) | MIC (E. coli W 677(A-20684)) | MIC (Sta. aureus ApO-1)
0.1 µg/mL: MIC (B. anthracis No. 119) | MIC (B. subtilis ATCC 6633) | MIC [8]
0.78 µg/mL: MIC [2, 11] | MIC (Sta. aureus No. 26) | MIC [4] | MIC (Kleb. pneumoniae; [11])
0.39 µg/mL: MIC (Sal. typhi 0-901-W) | MIC (Sta. aureus Smith S-424) | MIC (Sta. aureus N-0089)
3.13 µg/mL: MIC (Serra. marcescens No. 2) | MIC (Pro. vulgaris OX19) | MIC (E. coli No. 29) | MIC (E. coli A-0003) | MIC (Pro. morganii K-ono) | MIC (Sal. species D-0029) | MIC (E. coli A-0001) | MIC (Ps. aeruginosa M-0002; [18]) | MIC (Serra. marcescens No. 1)
0.05 µg/mL: MIC [5]
high activity: activity against a wide variety of drug-resistant microbial strains [1]
6.25 µg/mL: MIC (Ps. aeruginosa NC-5; NC5, 20 h) | MIC (Ps. aeruginosa M-0148; M0148, 20 h) | MIC (Pro. rettgelli J-0026; 20 h) | MIC (Ps. aeruginosa E-2; E2, 20 h)

NCC1C=CC(N)C(OC2C(N)CC(NC(=O)C(O)CN)C(OC3OC(CO)C(O)C(N)C3O)C2O)O1 [1-AHP-eno-DKB, 1-N-(L-isoseryl)-3',4'-dideoxy-3',4'-didehydrokanamycin B]
0.2 µg/mL: MIC (Sta. epidermidis 109) | MIC (B. anthracis No. 119) | MIC (B. subtilis ATCC 6633) | MIC [8]
6.25 µg/mL: MIC (E. coli No. 29) | MIC (E. coli A-0003) | MIC (Ps. aeruginosa M-0032; [17]) | MIC (Sal. species D-0029) | MIC (Sal. species D-0001) | MIC (Sal. species D-0006) | MIC (E. coli A-0001)
25 µg/mL: MIC (Pro. rettgelli J-0026; [11])
0.78 µg/mL: MIC (Ps. aeruginosa IAM-1007; [16]) | MIC (E. coli W 677(A-20684)) | MIC (Sta. aureus ApO-1)
1.56 µg/mL: MIC ([2]; 20 h) | MIC (Ps. aeruginosa M-0148; M0148, 20 h) | MIC [4] | MIC (Sal. typhi 0-901-W) | MIC (Ps. aeruginosa M-0002; M0002, 20 h) | MIC (Kleb. pneumoniae; 20 h) | MIC (Serra. marcescens I-0043; I0043, 20 h)
0.39 µg/mL: MIC (Sta. aureus No. 26) | MIC (Sta. aureus Smith S-424) | MIC (Sta. aureus N-0089)
3.13 µg/mL: MIC (Sal. typhimurium LT-2; [11]) | MIC (Pro. mirabilis J-0010; [12]) | MIC (Serra. marcescens No. 2) | MIC (Ps. aeruginosa NC-5; [13]) | MIC [3, 11] | MIC (Pro. vulgaris OX19) | MIC (Pro. vulgaris J-0001; [14]) | MIC [6, 15] | MIC [7, 11] | MIC (Pro. morganii K-ono) | MIC [9, 11] | MIC (Ps. aeruginosa E-2; [19]) | MIC (Serra. marcescens No. 1)
0.1 µg/mL: MIC [5]
50 µg/mL: MIC (Str. faecalis ATCC 8043)
